These results are taken from patent US20230287003A1, “BCL6 INHIBITORS” (Cancer Research Technology Limited, priority 2018, published 2023).

Each structure is given as a SMILES string.

Experiment [1] addresses human BCL6 BTB domain (Trx-6×His-BCL6) / BCOR-AF633 peptide (Homo sapiens (Human), UniProt P41182). The experiment is described as follows: HTRF assay. It counts as binding. The note with it: 1 nM Trx-6×His-BCL6, 300 nM BCOR-AF633 peptide, 2 hours incubation. In general terms: Time-resolved FRET reads energy transfer from a long-lived donor to a nearby acceptor.
Protocol: The % inhibition at each concentration was calculated by normalising FRET ratio to the appropriate high (DMSO with all reagents) and low (DMSO without BCL6) controls.
Experiment [2] deals with BCL6-NCOR2(SMRT) corepressor protein-protein interaction (Homo sapiens (Human), UniProt P41182). In words: NanoBRET cell assay. The format is cell-based. The note with it: read-out: NanoBRET cell avg pIC50 (converted). The source says:
At 20 hr post-transfection, cells were collected, washed with PBS, and exchanged into media containing phenol red-free OptiMEM+4% FBS (Life Technology).
(Bioluminescence resonance energy transfer reports proximity on the nanometre scale.)

In the case of `Cn1c(=O)c2c(c3cc(Nc4nc(N5C6COCC5CC(O)C6)ncc4Cl)ccc31)N[C@@H](C1CC1)CCS2` (stereo partly drawn) [Example 15a, (R)-10-((5-chloro-2-((1R,5S,7S)-7-hydroxy-3-oxa-9-azabicyclo[3.3.1]-nonan-9-yl)pyrimidin-4-yl)amino)-2-cyclopropyl-7-methyl-1,2,3,4-tetrahydro-[1,4]thiazepino[2,3-c]quinolin-6(7H)-one], the “HTRF avg pIC50 (1 nM)” value in experiment [1] is recorded as 8.12. Besides, in experiment [2], the IC50 is 28.8 nM.

For `Cn1c(=O)c2c(c3cc(Nc4nc(N5C6CCC5CC(O)C6)ncc4Cl)ccc31)N[C@@H](C1CC1)CCO2` (stereo partly drawn) [Example 12f, (R)-10-((5-chloro-2-((1R,3R,5S)-3-hydroxy-8-azabicyclo[3.2.1]octan-8-yl)pyrimidin-4-yl)amino)-2-cyclopropyl-7-methyl-1,2,3,4-tetrahydro-[1,4]oxazepino[2,3-c]quinolin-6(7H)-one], in experiment [1], the “HTRF avg pIC50 (1 nM)” value amounted to 7.96. In experiment [2], the IC50 is 295 nM.

Consider `Cn1c(=O)c2c(c3cc(Nc4ccnc(Cl)c4C#N)ccc31)NC(C1CC1)C(F)(F)CO2` (centres unmarked) [Example 1q, 2-chloro-4-((2-cyclopropyl-3,3-difluoro-7-methyl-6-oxo-1,2,3,4,6,7-hexahydro-[1,4]oxazepino[2,3-c]quinolin-10-yl)amino)nicotinonitrile], for which the “HTRF avg pIC50 (1 nM)” value in experiment [1] was found to be 8.35. Moreover, in experiment [2], the IC50 is 30.2 nM.

Consider `Cn1c(=O)c2c(c3cc(Nc4ccnc(Cl)c4C#N)ccc31)N[C@@H](C1CC1)COC2` [Example 9b, (S)-2-chloro-4-((2-cyclopropyl-7-methyl-6-oxo-1,2,3,5,6,7-hexahydro-[1,4]oxazepino[6,5-c]quinolin-10-yl)amino)nicotinonitrile], for which the “HTRF avg pIC50 (1 nM)” value in experiment [1] is listed as 6.57. The IC50 in experiment [2] is 2000 nM.

For the molecule `C[C@H]1COC(=O)c2c(c3cc(Nc4cc(OC5CCOCC5)ncc4Cl)ccc3n(C)c2=O)N1` [Example 7a], the “HTRF avg pIC50 (1 nM)” value in experiment [1] was 6.72. Further, the IC50 in experiment [2] is 19100 nM.

Turning to `C[C@H]1COC(=O)c2c(c3cc(Nc4nc(N5C6CCC5CC(F)(F)C6)ncc4Cl)ccc3n(C)c2=O)N1` [Example 8f, (2S)-10-((5-chloro-2-(3,3-difluoro-8-azabicyclo[3.2.1]octan-8-yl)pyrimidin-4-yl)amino)-2,7-dimethyl-2,3-dihydro-[1,4]oxazepino[6,5-c]quinoline-5,6(1H,7H)-dione], the “HTRF avg pIC50 (1 nM)” value in experiment [1] is listed as 6.67. In experiment [2], the IC50 was 6920 nM.

As to `C[C@H]1CCOc2c(c3cc(Nc4nc(N5CCOCC5)ncc4Cl)ccc3n(C)c2=O)N1` [Example 5h, (S)-10-((5-chloro-2-morpholinopyrimidin-4-yl)amino)-2,7-dimethyl-1,2,3,4-tetrahydro-[1,4]oxazepino[2,3-c]quinolin-6(7H)-one], the “HTRF avg pIC50 (1 nM)” value in experiment [1] is recorded as 7.01. In experiment [2], the IC50 is 1740 nM.

Turning to `CN1CCN(c2ncc(Cl)c(Nc3ccc4c(c3)c3c(c(=O)n4C)OCC[C@H](C4CC4)N3)n2)CC1=O` [Example 12b, (R)-10-((5-chloro-2-(4-methyl-3-oxopiperazin-1-yl)pyrimidin-4-yl)amino)-2-cyclopropyl-7-methyl-1,2,3,4-tetrahydro-[1,4]oxazepino[2,3-c]quinolin-6(7H)-one], the “HTRF avg pIC50 (1 nM)” value in experiment [1] was 7.80. The IC50 in experiment [2] is 60.3 nM.

On to `CN1CCN(c2ncc(Cl)c(Nc3ccc4c(c3)c3c(c(=O)n4C)OCC(F)(F)[C@H](C4CC4)N3)n2)CC1=O` [Example 12a, (S)-10-((5-chloro-2-(4-methyl-3-oxopiperazin-1-yl)pyrimidin-4-yl)amino)-2-cyclopropyl-3,3-difluoro-7-methyl-1,2,3,4-tetrahydro-[1,4]oxazepino[2,3-c]quinolin-6(7H)-one], for which the “HTRF avg pIC50 (1 nM)” value in experiment [1] was 8.82. In experiment [2], the IC50 is 18.6 nM.

For the molecule `Cn1c(=O)c2c(c3cc(Nc4nc(N5C6CCC5CS(=O)(=O)C6)ncc4Cl)ccc31)N[C@@H](C1CC1)CCO2` [Example 12j, (R)-10-((5-chloro-2-(3,3-dioxido-3-thia-8-azabicyclo[3.2.1]octan-8-yl)pyrimidin-4-yl)amino)-2-cyclopropyl-7-methyl-1,2,3,4-tetrahydro-[1,4]oxazepino[2,3-c]quinolin-6(7H)-one], the “HTRF avg pIC50 (1 nM)” value in experiment [1] came to 7.78. In experiment [2], the IC50 was 234 nM.

In the case of `Cn1c(=O)c2c(c3cc(Nc4nc(-n5ccc(C(F)(F)F)n5)ncc4Cl)ccc31)N[C@@H](C1CC1)CCO2` [Example 5a, (R)-10-((5-chloro-2-(3-(trifluoromethyl)-1H-pyrazol-1-yl)pyrimidin-4-yl)amino)-2-cyclopropyl-7-methyl-1,2,3,4-tetrahydro-[1,4]oxazepino[2,3-c]quinolin-6(7H)-one], the “HTRF avg pIC50 (1 nM)” value in experiment [1] came out at 7.03. The IC50 in experiment [2] was 617 nM.

Consider `Cn1c(=O)c2c(c3cc(Nc4nc(N5C6CCC5COC6)ncc4Cl)ccc31)N[C@@H](C1CC1)C(F)(F)CO2` [Example 12v, (S)-10-((2-(3-oxa-8-azabicyclo[3.2.1]octan-8-yl)-5-chloropyrimidin-4-yl)amino)-2-cyclopropyl-3,3-difluoro-7-methyl-1,2,3,4-tetrahydro-[1,4]oxazepino[2,3-c]quinolin-6(7H)-one], for which the “HTRF avg pIC50 (1 nM)” value in experiment [1] was determined as 8.86. The IC50 in experiment [2] is 8.32 nM.

For `Cn1c(=O)c2c(c3cc(Nc4nc(N5CC(C)(C)OC(C)(C)C5)ncc4Cl)ccc31)N[C@@H](C1CC1)CCO2` [Example 5k, (R)-10-((5-chloro-2-(2,2,6,6-tetramethylmorpholino)pyrimidin-4-yl)amino)-2-cyclopropyl-7-methyl-1,2,3,4-tetrahydro-[1,4]oxazepino[2,3-c]quinolin-6(7H)-one], the “HTRF avg pIC50 (1 nM)” value in experiment [1] was determined as 7.22. Besides, the IC50 in experiment [2] is 112 nM.

Regarding `COC[C@@H]1CCCN1C(=O)c1cc(Nc2ccc3c(c2)c2c(c(=O)n3C)OCC[C@H](C)N2)c(Cl)cn1` [Example 4b, (S)-10-((5-chloro-2-((S)-2-(methoxymethyl)pyrrolidine-1-carbonyl)pyridin-4-yl)amino)-2,7-dimethyl-1,2,3,4-tetrahydro-[1,4]oxazepino[2,3-c]quinolin-6(7H)-one], the “HTRF avg pIC50 (1 nM)” value in experiment [1] stood at 6.70. In addition, the IC50 in experiment [2] is 3310 nM.

Regarding `C[C@@H]1CN(c2nc(Cl)c(Cl)c(Nc3ccc4c(c3)c3c(c(=O)n4C)OCC[C@H](C4CC4)N3)n2)C[C@H](C)O1` [Example 1r, (R)-2-cyclopropyl-10-((5,6-dichloro-2-((2S,6R)-2,6-dimethylmorpholino)pyrimidin-4-yl)amino)-7-methyl-1,2,3,4-tetrahydro-[1,4]oxazepino[2,3-c]quinolin-6(7H)-one], the “HTRF avg pIC50 (1 nM)” value in experiment [1] turned out to be 6.51. Moreover, the IC50 in experiment [2] was 1020 nM.

For `Cn1c(=O)c2c(c3cc(Nc4ccnc(Cl)c4C#N)ccc31)N[C@@H](C1CC1)CCS2` [Example 1s, (R)-2-chloro-4-((2-cyclopropyl-7-methyl-6-oxo-1,2,3,4,6,7-hexahydro-[1,4]thiazepino[2,3-c]quinolin-10-yl)amino)nicotinonitrile], in experiment [1], the “HTRF avg pIC50 (1 nM)” value came to 7.83. In addition, the IC50 in experiment [2] is 63.1 nM.
